PubChem BioAssay AID1397 (The Scripps Research Institute Molecular Screening Center, 2008)
Calls of active or inactive are those of the source.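 Rule for the calls: active = potency EC50 for STAT1 activation at or below 10 micromolar; inactive = EC50 above 10 micromolar.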

The compounds below were run on NIH 3T3 STAT1-luciferase reporter, luminescence (assay: STAT1 signalling activators, dose response, cell-based, NIH 3T3, luciferase luminescence (AID 1397)). Conditions: not given.

SMILES	EC50 [nM]
CC(=O)Nc1ccccc1C(=O)OCc1cccc(F)c1	3020
Nc1ccccc1C(=O)OCC(=O)N1CCc2ccccc21	2220

Same assay, conditions: cells stimulated with IFN-gamma at EC80

SMILES	EC50
Cc1cccc(Nc2n[nH]c(C)c2[N+](=O)[O-])c1	1240 nM
COc1ccc2nc(Nc3nc(C)c(C(C)=O)s3)sc2c1	2120 nM
O=C(NCCC1=CCCCC1)c1ccc(F)cc1	> 687 nM (inactive)
c1cncc(-c2nc3cc4ccccc4cc3[nH]2)c1	331 nM
Cc1nc2ccc3nc(NC(=O)c4ccco4)sc3c2s1	11000 nM (inactive)
Cc1nc(-c2ccc(NC(=O)c3ccccc3Br)cc2)cs1	2600 nM
COc1ccc(-c2cc3ncc(-c4ccccc4)c(N)n3n2)cc1	1210 nM
O=C(CCc1nnc(CCCc2ccccc2)o1)N1CCCCCC1	7830 nM
COc1ccc(-c2nc3ccc([N+](=O)[O-])cc3[nH]2)cc1	126 nM
C=CCNC(=S)NNC(=O)COc1ccc2cc(Br)ccc2c1	3040 nM
CCNc1nc(-c2cc3ccccc3o2)cs1	179 nM
O=C(Nc1cccc(Cl)c1)c1ccc2c(=O)n3c(nc2c1)CCCCC3	811 nM
Nc1ccc2oc(-c3ccccc3Cl)nc2c1	> 229 nM (inactive)
Cc1nc(-c2ccc(NC(=O)c3ccccc3C)cc2)cs1	1840 nM
Cc1ccc(/C=C/C(=O)Nc2ccccc2C(N)=O)cc1	> 687 nM (inactive)
Cc1ccc2nc(NC(=O)CCn3cccc3)sc2c1	6940 nM
CCOC(=O)c1cnc2c(-c3ccccc3)cnn2c1N	229 nM
Cc1ncsc1C(=O)Nc1nc2c(s1)CCCC2	2680 nM
O=C(/C=C/c1ccco1)Nc1ccccn1	> 687 nM (inactive)
CC(=O)c1cccc(N/C=C\C(=O)c2ccc(C)cc2)c1	> 687 nM (inactive)
CC(C)Oc1ccc2c(=O)c(-c3ccccc3)coc2c1	418 nM
CCN(CC)c1ccc2cc(C(=O)Nc3ccccn3)c(=O)oc2c1	> 76 nM (inactive)
O=C(/C=C/Nc1ccccc1F)c1ccc(Br)cc1	> 76 nM (inactive)
Cc1ccc(NC(=O)Nc2ccc3oc(C)nc3c2)cc1	1650 nM
Nc1ccc2nn(-c3ccccc3)nc2c1	1350 nM
CC(=O)NC(=S)Nc1sc2c(c1C#N)CCCCC2	> 76 nM (inactive)

SMILES	EC50
COc1cc(NC(=O)c2csc3c2CCCC3)ncn1	1210 nM
CCOC(=O)c1sc(NC(=O)c2sccc2C)cc1C	233 nM
CCOC(=O)/C(C#N)=C/c1cc(C)n(-c2ccccc2)c1C	69 nM
O=C(Nc1ccc2c(c1)OCCO2)c1ccc(Br)s1	> 229 nM (inactive)
Cc1ccc(C(=O)Nc2nc3c(s2)CCCC3)o1	> 229 nM (inactive)
Cc1ccc(-c2cc(N)n(-c3ccccc3)n2)cc1	3000 nM
CCOC(=O)c1ccc2nc(NC(C)=O)sc2c1	2540 nM
Clc1ccc(-n2ncc3c(NCC4CCCO4)ncnc32)cc1 (stereo unspecified)	409 nM
CC(C)=CC(=O)Nc1nc2ccc([N+](=O)[O-])cc2s1	3130 nM
O=C(OCc1csc(-c2ccccc2)n1)c1cccs1	> 687 nM (inactive)
O=C(NC(=S)Nc1ccccn1)c1ccc([N+](=O)[O-])cc1	525 nM
O=C(c1ccccc1)c1ccc(N2CCCC2)cc1	1970 nM
Cc1ccc(C(=O)/C=C/Nc2cccc([N+](=O)[O-])c2)o1	1380 nM
COc1cccc(N/C=C/C(=O)c2ccc(Cl)cc2)c1	114 nM
CCCCOC(=O)Nc1nc2ccccc2s1	741 nM
Fc1ccccc1CSc1nnc(-c2cccnc2)o1	4520 nM
CC(=O)c1cccc(NC(=S)NC(=O)c2cccc(C)c2)c1	1890 nM
C=CCn1c(C)cc(C(=O)CSc2nc3ccccc3o2)c1C	> 229 nM (inactive)
COc1ccc2c(c1)oc(=O)c1cc(OC)ccc12	4280 nM
Nc1ncc(-c2cc3ccccc3oc2=O)s1	> 687 nM (inactive)
COc1ccc2[nH]c3c(c2c1)CCn1c-3nc2ccccc2c1=O	> 76 nM (inactive)
N#C/C(=C\c1ccc(N2CCOCC2)o1)c1nc2ccccc2[nH]1	> 76 nM (inactive)
COc1ccc(-c2cc(C)nc3c(-c4ccccc4)cnn23)cc1	> 76 nM (inactive)
CCc1ccc(Nc2ncc3c(n2)CC(C)CC3=O)cc1 (stereo unspecified)	751 nM
CN(C)c1ccc(C(=O)OCC(=O)c2cccs2)cc1	> 687 nM (inactive)
COc1ccc(Nc2oc(-c3cccs3)nc2C#N)cc1	3220 nM

SMILES	EC50
CCOCC(=O)Nc1nc2ccc(OCC)cc2s1	> 55700 nM (inactive)
C/C(=C\c1ccccc1)C(=O)Nc1nccs1	2090 nM
CCc1c(C)[nH]c(C(=O)OCc2ccccc2)c1C	6910 nM
O=C(NC(=S)Nc1ccc(F)cc1)c1ccc2c(c1)OCCO2	1000 nM
CN(C)c1ccnc2sc(C(=O)c3ccccc3)c(N)c12	1970 nM
O=C(/C=C/c1ccc(F)cc1)Nc1nc2ccccc2[nH]1	920 nM
O=[N+]([O-])c1ccccc1OCCCn1cnc2ccccc21	1500 nM
CC(=O)Nc1ccc(-c2csc(Nc3cccc(C)n3)n2)cc1	1650 nM
Clc1ccc(-n2ncc3c(N4CCCC4)ncnc32)cc1	> 55700 nM (inactive)
COc1ccc(NC(=S)Nc2ccc3nccnc3c2)cc1	13300 nM (inactive)
Cc1ccc(-c2cc3nc(C)cc(NCc4ccco4)n3n2)cc1	3430 nM
COc1ccc(N/C=C\C(=O)c2ccc3c(c2)OCO3)cc1OC	2860 nM
O=C(O)c1ccccc1C(=O)Nc1ccc(-c2csc(-c3ccccc3)n2)cc1	3880 nM
O=C(Nc1ccc(-c2nc3cccnc3s2)cc1)c1ccco1	341 nM
C=CCNc1nc(-c2cc3ccccc3o2)cs1	> 764 nM (inactive)
O=C(Nc1nccs1)c1ccc(-c2ccc([N+](=O)[O-])cc2)o1	1220 nM
Nc1ccccc1Nc1cc(-c2ccccc2)[nH]n1	2720 nM
Fc1ccc2nc(Nc3nc4cc5c(cc4s3)OCCO5)sc2c1	1290 nM
Cc1nc2ccc(-c3nc4ccccc4o3)cc2[nH]1	356 nM
COc1ccc2nc(Nc3ccc4c(c3)OCO4)sc2c1	3070 nM
CC(C)(C)N=C1NN=C(c2cc3ccccc3o2)CS1	825 nM
O=C(/C=C/Nc1ccc(F)cc1)c1ccc(Br)cc1	431 nM
O=C(/C=C/c1cccc(F)c1)N1CCc2ccccc21	210 nM
CCCOC(=O)c1ccc(-c2ccc(C=O)o2)cc1	436 nM
O=C(/C(C=Nc1ccc(F)cc1)=C(/O)c1ccco1)C(F)(F)F	> 687 nM (inactive)
C=CCNC(=O)c1cc(-c2ccc(Br)cc2)on1	832 nM

SMILES	EC50
Cc1occc1C(=O)Nc1ccc2c(c1)CCC2	1600 nM
CCC(C)NC(=O)c1cc(-c2ccc(OC)cc2)on1 (stereo unspecified)	1300 nM
CCOC(=O)CSc1nc(-c2ccncc2)ccc1C#N	1200 nM
COc1cccc(NC(=O)Nc2ccc(C(C)(C)C)cc2)c1	2810 nM
Cc1ccc(C(=O)Nc2nc3ccccc3s2)s1	> 76 nM (inactive)
Cc1ccc(/C=C/C(=O)N2CCCC(C)C2)cc1 (stereo unspecified)	> 687 nM (inactive)
COc1ccc(/C=C/C(=O)Nc2ccccc2)cc1OC	5130 nM
Cc1ccc(-c2cnc(-c3ccncc3)o2)cc1	3300 nM
Cc1cc(C(=O)NCCC2=CCCCC2)c(C)o1	> 229 nM (inactive)
O=C(/C(C=Nc1ccc(Br)cc1)=C(/O)c1ccco1)C(F)(F)F	> 685 nM (inactive)
CC(=O)Nc1cccc(-c2cnc3ccccc3n2)c1	3860 nM
CN(C)c1nc(N)nc(CSc2nc3cc(Cl)ccc3o2)n1	18600 nM (inactive)
O=C(Cn1cnc2ccccc2c1=O)c1ccc(Cl)cc1	8040 nM
NC(=O)Cc1ccc2sc(-c3ccccc3)nc2c1	463 nM
Cc1nnc(SCC(=O)Nc2ccc(-c3nc4ccccc4s3)cc2)s1	93 nM
Nc1nc2ccc(-c3nc4ccccc4o3)cc2s1	516 nM
CC(=O)COc1ccc2c(C)c(-c3ccccc3)c(=O)oc2c1	31500 nM (inactive)
CCCCCNc1nc(-c2ccccc2)cs1	851 nM
COc1ccc(-c2csc(N3C(=O)CNC3=S)n2)cc1	87 nM
O=C(/C=C/c1ccccc1)Nc1ccc(Cl)cn1	669 nM
CCOc1ccc2nc(N3CCOCC3)nc(C)c2c1	2300 nM
CN1C(=O)/C(=C/C=C2\SCCN2C)SC1=S	420 nM
Cc1ccc(C(=O)N2CCc3ccccc32)o1	> 687 nM (inactive)
c1csc(C2=NNC(=NC3CCCCC3)SC2)c1	> 688 nM (inactive)
c1ccc(CNc2ccc3ccccc3n2)nc1	> 687 nM (inactive)
CCc1ccc(NC(=O)N2CCC(c3ccccc3)C2)cc1 (stereo unspecified)	1370 nM
